Source: the NIST ThermoML archive (doi:10.1021/je300775u)

Assay: xn = mol fraction of the nth substance listed
Conditions: 101 kPa, Liquid; for speed of sound: Pulse-echo method; for mass density: Vibrating tube method

BrCBr [dibromomethane] + CCCCCCC
Conditions	mass density, 293.15 K [kg/m3]	mass density, 298.15 K [kg/m3]	mass density, 303.15 K [kg/m3]	mass density, 308.15 K [kg/m3]	mass density, 313.15 K [kg/m3]	speed of sound, 293.15 K [m/s]	speed of sound, 298.15 K [m/s]	speed of sound, 303.15 K [m/s]	speed of sound, 308.15 K [m/s]	speed of sound, 313.15 K [m/s]
x1 = 0.0504	727.59	723.09	718.56	714	709.41	1128.1	1107.3	1086.4	1065.7	1045.1
x1 = 0.1039	776.8	772.01	767.19	762.36	757.48	1104.9	1084.7	1064.4	1044.3	1024.3
x1 = 0.1552	826.84	821.77	816.67	811.54	806.36	1084	1064.4	1044.8	1025.2	1005.6
x1 = 0.2037	877.02	871.66	866.26	860.84	855.37	1065.7	1046.5	1027.3	1008.2	989
x1 = 0.2532	931.38	925.72	920.03	914.3	908.53	1048.3	1029.7	1010.9	992.3	973.7
x1 = 0.3019	988.09	982.12	976.09	970.04	963.95	1032.4	1014.2	995.8	977.6	959.6
x1 = 0.354	1052.94	1046.61	1040.23	1033.82	1027.38	1016.7	999.1	981.2	963.5	946
x1 = 0.4022	1117.05	1110.37	1103.65	1096.88	1090.09	1003.5	986.1	968.8	951.5	934.5
x1 = 0.4552	1192.54	1185.46	1178.34	1171.15	1163.95	990.1	973.2	956.4	939.6	923
x1 = 0.4962	1254.87	1247.47	1240.03	1232.54	1225	980.6	964.2	947.8	931.2	914.8
x1 = 0.5532	1347.9	1339.98	1332.06	1324.08	1316.09	969.3	953.3	937.4	921.4	905.5
x1 = 0.6119	1452.49	1444.09	1435.65	1427.16	1418.62	959.2	943.8	928.3	912.9	897.5
x1 = 0.6543	1534.18	1525.37	1516.52	1507.63	1498.69	953.4	938.2	923.1	908	893
x1 = 0.7032	1635.75	1626.46	1617.14	1607.76	1598.32	948	933.3	918.6	903.9	889.2
x1 = 0.7514	1744.18	1734.39	1724.55	1714.66	1704.72	944.6	930.2	915.8	901.5	887.2
x1 = 0.8024	1869.64	1859.25	1848.85	1838.4	1827.87	942.9	928.9	915	901.1	887
x1 = 0.8518	2003.09	1992.14	1981.12	1970.07	1958.96	943.8	930.2	916.5	902.9	889.3
x1 = 0.9004	2147.05	2135.43	2123.78	2112.21	2100.38	947.2	933.8	920.3	907.1	893.8
x1 = 0.9502	2310.37	2298.08	2285.74	2273.36	2260.95	953.1	940.1	927.1	914.1	901.1
x1 = 1	2491.67	2478.61	2465.53	2452.42	2439.26	961.8	949.2	936.6	924	911.4
